Reference: article PMC8667930, “Novel sulphonamide-bearing methoxyquinazolinone derivatives as anticancer and apoptosis inducers: synthesis, biological evaluation and in silico studies” (Journal of Enzyme Inhibition and Medicinal Chemistry, 2021)

Legend:
[1] = system: MCF-7 cells (human breast cancer cell line); assay: MTT cytotoxicity assay, MCF-7; format: cell-based; details: mean ± SD (n = 3), NA = no activity; for IC50: Homo sapiens, MCF7, 48 h treatment; for IC50, MCF-7: 48 h treatment
Procedure: (§1) The MTT assay was performed to test the antiproliferative activity of the synthesised compounds, as per the methodology described by Alqahtani and co-workers[35]. Briefly, A549, HepG2, LoVo, MCF-7 and HUVEC cell lines were seeded in 96-cell culture plates (5 × 10^4 per well) and allowed 24 h for adherence. The cells were then treated with different concentrations of each compound, and 5-fluorouracil was used as a positive control. Following the treatment period (48 h), 10 µL of MTT solution (5 mg/mL) was added to each well and the plates were incubated at 37 °C for 2–4 h. Isopropanol (100 µL) acidified with 0.1 N HCl was added to solubilise the formazan products and the plate was kept on a shaker for 10 min. The optical density of each mixture was measured at 570 nm using an enzyme-linked immunosorbent assay plate reader (ELISA plate reader, Bio-Tek, USA). The concentrations of tested compounds required to inhibit cell growth by 50% (IC50) were calculated using a dose-response curve. Cell survival was calculated using the following equation: Cell survival (%)=(OD of treated sample)/(OD of untreated sample)×100

[2] = system: HepG2 cells (liver cancer); assay: MTT cytotoxicity assay, HepG2; format: cell-based; details: mean ± SD (n = 3), NA = no activity; for IC50: Homo sapiens, HepG2, 48 h treatment; for IC50, HepG2: 48 h treatment
Procedure: as §1

[3] = system: HUVEC (normal human umbilical vein endothelial cells); assay: MTT cytotoxicity assay, HUVEC; format: cell-based; details: 48 h treatment, mean ± SD (n = 3), NA = no activity; for IC50: Homo sapiens, HUVEC
Procedure: as §1

[4] = system: A549 cells (non-small cell lung carcinoma); assay: MTT cytotoxicity assay, A549; format: cell-based; details: mean ± SD (n = 3), NA = no activity; for IC50: Homo sapiens, A549, 48 h treatment; for IC50, A549: 48 h treatment
Procedure: as §1

[5] = system: LoVo cells (colon cancer); assay: MTT cytotoxicity assay, LoVo; format: cell-based; details: 48 h treatment, mean ± SD (n = 3), NA = no activity; for IC50: Homo sapiens, LoVo
Procedure: as §1

`O=c1[nH]cc(F)c(=O)[nH]1` [5-Flurouracil, 5-Fluorouracil, reference compound] showed an IC50 [1] of 95.63 ± 0.3 µM, an IC50 [2] of 132.4 ± 0.6 µM and an IC50 [3] of 167 ± 0.2 µM. The IC50 [4] was 98.86 ± 0.01 µM and the IC50 [5] was 90.71 ± 0.5 µM.
In the case of `COc1cccc2c(=O)n(-c3ccc(S(N)(=O)=O)cc3)c(SCC(=O)Nc3ccccc3)nc12` [Compound 5, 2-((8-Methoxy-4-oxo-3–(4-sulphamoylphenyl)-3,4-dihydroquinazolin-2-yl)thio)-N-phenyl-acetamide], the “IC50, MCF-7” value [1] is reported as “no activity”, the “IC50, HepG2” value [2] is reported as “no activity” and the “IC50, HUVEC” value [3] is reported as “no activity”. For the same compound, the “IC50, A549” value [4] was “no activity”, the “IC50, LoVo” value [5] was “no activity” and the melting point was over 350 °C.
`COc1cccc2c(=O)n(-c3ccc(S(N)(=O)=O)cc3)c(SCC(=O)Nc3cccc(C)c3)nc12` [Compound 7, 2-((8-Methoxy-4-oxo-3-(4-sulphamoylphenyl)-3,4-dihydroquinazolin-2-yl)thio)-N-(m-tolyl) acetamide] gave an IC50 [1] of 27.7 ± 1.85 µM, an IC50 [2] of 39.7 ± 2.27 µM and an IC50 [3] of 83.2 ± 0.9 µM. For the same compound, the IC50 [4] was 58.6 ± 1.52 µM, the IC50 [5] was 30.1 ± 1.3 µM and the melting point was over 350 °C.
For `COc1cccc2c(=O)n(-c3ccc(S(N)(=O)=O)cc3)c(SCC(=O)Nc3ccc(C)cc3)nc12` [Compound 8, 2-((8-Methoxy-4-oxo-3-(4-sulphamoylphenyl)-3,4-dihydroquinazolin-2-yl)thio)-N-(p-tolyl) acetamide], the “IC50, MCF-7” value [1] was “no activity”, the “IC50, HepG2” value [2] was “no activity” and the “IC50, HUVEC” value [3] was “no activity”. For the same compound, the “IC50, A549” value [4] was “no activity”, the “IC50, LoVo” value [5] was “no activity” and the melting point was over 350 °C.
For `CCc1ccccc1NC(=O)CSc1nc2c(OC)cccc2c(=O)n1-c1ccc(S(N)(=O)=O)cc1` [Compound 9, N-(2-Ethylphenyl)-2-((8-methoxy-4-oxo-3-(4-sulphamoylphenyl)-3,4-dihydroquinazolin-2-yl)thio) acetamide], the “IC50, MCF-7” value [1] was “no activity”, the “IC50, HepG2” value [2] was “no activity” and the “IC50, HUVEC” value [3] was “no activity”. For the same compound, the “IC50, A549” value [4] was “no activity”, the “IC50, LoVo” value [5] was “no activity” and the melting point was 288 to 290 °C.
In the case of `CCc1ccc(NC(=O)CSc2nc3c(OC)cccc3c(=O)n2-c2ccc(S(N)(=O)=O)cc2)cc1` [Compound 11, N-(4-Ethylphenyl)-2-((8-methoxy-4-oxo-3-(4-sulphamoylphenyl)-3,4-dihydroquinazolin-2-yl)thio) acetamide], the IC50 [1] is reported as 29.4 ± 0.33 µM, the IC50 [2] is reported as 42.7 ± 0.84 µM and the IC50 [3] is reported as 32.9 ± 1.4 µM. It also gave an IC50 [4] of 50.5 ± 1.73 µM and a melting point of 280 to 282 °C.
For `COc1ccc(NC(=O)CSc2nc3c(OC)cccc3c(=O)n2-c2ccc(S(N)(=O)=O)cc2)cc1` [Compound 12, 2-((8-Methoxy-4-oxo-3-(4-sulphamoylphenyl)-3,4-dihydroquinazolin-2-yl)thio)-N-(p-methoxyphenyl) acetamide], the “IC50, MCF-7” value [1] was “no activity”, the “IC50, HepG2” value [2] was “no activity” and the “IC50, HUVEC” value [3] was “no activity”. For the same compound, the “IC50, A549” value [4] was “no activity”, the “IC50, LoVo” value [5] was “no activity” and the melting point was 296 to 298 °C.
Compound `CCOc1ccc(NC(=O)CSc2nc3c(OC)cccc3c(=O)n2-c2ccc(S(N)(=O)=O)cc2)cc1` [Compound 13, N-(p-Ethoxyphenyl)-2-((8-methoxy-4-oxo-3-(4-sulphamoylphenyl)-3,4-dihydroquin-azolin-2-yl)thio) acetamide] has an IC50 [1] of 46.7 ± 1.23 µM, an IC50 [2] of 38 ± 0.47 µM and an IC50 [3] of 39 ± 1.4 µM. The IC50 [4] was 61.9 ± 1.35 µM, the IC50 [5] was 54.4 ± 2.07 µM and the melting point was 300 to 302 °C.
Compound `COc1cc(NC(=O)CSc2nc3c(OC)cccc3c(=O)n2-c2ccc(S(N)(=O)=O)cc2)cc(OC)c1` [Compound 14, N-(3,5-Dimethoxyphenyl)-2-((8-methoxy-4-oxo-3-(4-sulphamoylphenyl)-3,4-dihydroq-uinazolin-2-yl)thio) acetamide] has an IC50 [1] of 34.6 ± 1.15 µM, an IC50 [2] of 72.5 ± 1.06 µM and an IC50 [3] of 62.6 ± 2.34 µM. The IC50 [4] was 68.34 ± 0.42 µM, the IC50 [5] was 38.3 ± 0.65 µM and the melting point was 240 to 242 °C.
For `COc1cc(NC(=O)CSc2nc3c(OC)cccc3c(=O)n2-c2ccc(S(N)(=O)=O)cc2)cc(OC)c1OC` [Compound 15, 2-((8-Methoxy-4-oxo-3-(4-sulphamoylphenyl)-3,4-dihydroquinazolin-2-yl)thio)-N-(3,4,5-trimethoxyphenyl) acetamide], the IC50 [1] was 74 ± 2.16 µM, the IC50 [2] was 75.2 ± 0.96 µM and the IC50 [3] was 79 ± 1.09 µM. It also gave an IC50 [4] of 75 ± 1.74 µM, an IC50 [5] of 47.5 ± 4.08 µM and a melting point of 290 to 292 °C.
Compound `COc1cccc2c(=O)n(-c3ccc(S(N)(=O)=O)cc3)c(SCC(=O)Nc3ccc([N+](=O)[O-])cc3C)nc12` [Compound 16, 2-((8-Methoxy-4-oxo-3-(4-sulphamoylphenyl)-3,4-dihydroquinazolin-2-yl)thio)-N-(2-methyl-4-nitrophenyl) acetamide] has an IC50 [1] of 39.9 ± 0.57 µM, an IC50 [2] of 75.7 ± 1.85 µM and an IC50 [3] of 80.8 ± 1.13 µM. The IC50 [4] was 67.4 ± 1.45 µM, the IC50 [5] was 40.98 ± 0.12 µM and the melting point was over 350 °C.
In the case of `COc1cccc2c(=O)n(-c3ccc(S(N)(=O)=O)cc3)c(SCC(=O)Nc3c(C)cccc3[N+](=O)[O-])nc12` [Compound 17, 2-((8-Methoxy-4-oxo-3-(4-sulphamoylphenyl)-3,4-dihydroquinazolin-2-yl)thio)-N-(2-methyl-6-nitrophenyl) acetamide], the “IC50, MCF-7” value [1] is reported as “no activity”, the “IC50, HepG2” value [2] is reported as “no activity” and the “IC50, HUVEC” value [3] is reported as “no activity”. For the same compound, the “IC50, A549” value [4] was “no activity”, the “IC50, LoVo” value [5] was “no activity” and the melting point was over 350 °C.
